≈ marks a conversion by molar mass, not a printed value. Like-named read-outs stand apart in the source and are kept apart here.
Columns and labels:
Alternaria tenuis = experiment: Agar MIC determination, Alternaria tenuis; type: cell-based; conditions: Alternaria alternata, 336 h, beerwort/peptone agar, 28° C., 2 weeks
Procedure: (§1) Active compounds according to the invention are added, in concentrations of 0.1 mg/liter to 5,000 mg/liter, to an agar prepared from beerwort and peptone. After storage at 28° C. and 60 to 70% relative atmospheric humidity for 2 weeks, the MIC is determined.

Aspergillus niger = experiment: Agar MIC determination, Aspergillus niger; type: cell-based; conditions: 336 h, beerwort/peptone agar, 28° C., 2 weeks
Procedure: as §1

Aureobasidium pullulans = experiment: Agar MIC determination, Aureobasidium pullulans; type: cell-based; conditions: 336 h, beerwort/peptone agar, 28° C., 2 weeks
Procedure: as §1

Chaetomium globosum = experiment: Agar MIC determination, Chaetomium globosum; type: cell-based; conditions: 336 h, beerwort/peptone agar, 28° C., 2 weeks
Procedure: as §1

Coniophora cerebella = experiment: Agar MIC determination, Coniophora cerebella; type: cell-based; conditions: 336 h, beerwort/peptone agar, 28° C., 2 weeks
Procedure: as §1

Lentinus tigrinus = experiment: Agar MIC determination, Lentinus tigrinus; type: cell-based; conditions: 336 h, beerwort/peptone agar, 28° C., 2 weeks
Procedure: as §1

Penicillium glaucum = experiment: Agar MIC determination, Penicillium glaucum; type: cell-based; conditions: 336 h, beerwort/peptone agar, 28° C., 2 weeks
Procedure: as §1

Sclerophoma pityophila = experiment: Agar MIC determination, Sclerophoma pityophila; type: cell-based; conditions: Sydowia polyspora, 336 h, beerwort/peptone agar, 28° C., 2 weeks
Procedure: as §1

Trichoderma viride = experiment: Agar MIC determination, Trichoderma viride; type: cell-based; conditions: 336 h, beerwort/peptone agar, 28° C., 2 weeks
Procedure: as §1

slime organisms = experiment: Action against slime organisms in Allens nutrient solution; type: cell-based; conditions: 504 h
Procedure: Compounds according to the invention, dissolved in acetone, are used in concentrations of in each case 0.1 to 100 mg/liter in Allens nutrient solution (Arch. Mikrobiol. 17, 34 to 53 (1952)) containing, in 4 liters of sterile water, 0.2 g of ammonium chloride, 4.0 g of sodium nitrate, 1.0 g of dipotassium hydrogen phosphate, 0.2 g of calcium chloride, 2.05 g of magnesium sulphate, 0.02 g of iron chloride and 1% of caprolactam. Shortly beforehand, the nutrient solution is infected with slime organisms (about 10^6 germs/ml) which have been isolated from the spinning water circulations used in the preparation of polyamide.

[1] = test system: fungi (Aspergillus niger, Aureobasidium pullulans, Alternaria speciales, Penicillium citrinum, Stachybotrys atra, Paecilomyces varioti, Cladosporium herbarum …); experiment: Testing of paint films for resistance to mould (Report 219, Defense Standards Laboratories); conditions: 1.5 to 2% (or more) based on total solids content
Procedure: The test is carried out in accordance with Report 219 of the Defense Standards Laboratories Maibyrnong/Australia, as follows: smooth cardboard is coated on both sides with the product to be tested and is dried at room temperature for 8 days. For ageing, part of the coating is kept in running water at 24° C. for 24 hours, part is aerated with fresh air of 40° to 60° C. for 8 days, and part is exposed to a dry Xenon test for 110 hours. 5×5 cm sections of the test pieces thus treated are placed individually in Petri dishes on a glucose nutrient medium, and are contaminated with a spore suspension of the following fungi: Aspergillus niger, Aureobasidium pullulans, Alternaria speciales, Penicillium citrinum, Stachybotrys atra, Paecilomyces varioti, Cladosporium herbarum, Aspergillus ustus or Aspergillus flavus.
The contaminated dishes are kept at 28°-30° C. and 90-95% relative atmospheric humidity, and are evaluated after 3 weeks. Paint films are regarded as mould-resistant if the test pieces remain free from fungi after this test.
A commercially available, alkaline emulsion paint based on polyvinyl acetate is tested for mould resistance by the test method described above.

[2] = slime organisms about 10^6 germs/ml, Allens nutrient solution, room temperature, 3 weeks, read-out: MIC

Compound | MIC (Alternaria tenuis) | MIC (Aspergillus niger) | MIC (Aureobasidium pullulans) | MIC (Chaetomium globosum) | MIC (Coniophora cerebella) | MIC (Lentinus tigrinus) | MIC (Penicillium glaucum) | MIC (Sclerophoma pityophila) | MIC (Trichoderma viride) | MIC (slime organisms; read-out: MIC in mg/liter) | mould resistance of paint films ([1]; alkaline polyvinyl acetate emulsion paint, 3 weeks, 28°-30° C.) | mould resistance of paint films after ageing ([1]; films first subjected to running water 24 hours, fresh air 40° to 60° C. 8 days, or dry Xenon test 110 hours) | MIC (slime organisms; [2])
O=c1c2ccccc2nnn1CC#CI [Active compound A, 3-(3-Iodopropargyl)-benzo-1,2,3-triazin-4-one] | 5 µg/mL (≈ 16.1 µM) | 5 µg/mL (≈ 16.1 µM) | 5 µg/mL (≈ 16.1 µM) | < 20 µg/mL | 0.5 µg/mL (≈ 1.61 µM) | 2 µg/mL (≈ 6.43 µM) | 5 µg/mL (≈ 16.1 µM) | 3.5 µg/mL (≈ 11.3 µM) | 10 µg/mL (≈ 32.1 µM) | 5 mg/L (≈ 16.1 µM) | very good mould-resistant paint films | very good mould-resistant paint films | 
O=c1c2cc([N+](=O)[O-])ccc2nnn1CC#CI [Active compound B, 3-(3-Iodopropargyl)-6-nitro-benzo-1,2,3-triazin-4-one] |  | < 20 µg/mL |  | < 20 µg/mL |  |  | < 20 µg/mL |  |  |  |  |  | 20 mg/L (≈ 56.2 µM)
O=c1c2ccc(Cl)cc2nnn1CC#CI [Active compound C, 3-(3-Iodopropargyl)-7-chloro-benzo-1,2,3-triazin-4-one] |  | < 20 µg/mL |  | < 20 µg/mL |  |  | < 20 µg/mL |  |  |  |  |  | 30 mg/L (≈ 86.8 µM)
CCCCNC(=O)OCC#CI [Active compound D, iodopropargyl N-butyl-carbamate, reference compound] |  | 80 µg/mL (≈ 285 µM) |  | 60 µg/mL (≈ 213 µM) |  |  | 40 µg/mL (≈ 142 µM) |  | 140 µg/mL (≈ 498 µM) |  |  |  | 
